In the supplement of paper PMC10307832:

Legend:
Experiment in all cases: relative viability (nuclei count vs DMSO), 5 days (fraction); higher = more cells survive
A-427 = test system: A-427
Summary of the method: (§1)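 Lung cancer cell lines in 1536-well plates got either a single drug or a fixed anchor-drug dose together with five library-drug doses (not always all listed) in √10 steps, by pin tool, on the day after seeding. Nuclei were counted after 5 days, and relative viability is the treated-to-vehicle ratio of nuclei counts. Values are medians of duplicate plates.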

COR-L 105 = test system: COR-L 105
Summary of the method: as §1

ChaGo-K-1 = test system: ChaGo-K-1
Summary of the method: as §1

EKVX = test system: EKVX
Summary of the method: as §1

EMC-BAC-2 = test system: EMC-BAC-2
Summary of the method: as §1

EPLC-272H = test system: EPLC-272H
Summary of the method: as §1

HARA = test system: HARA
Summary of the method: as §1

HCC-44 = test system: HCC-44
Summary of the method: as §1

LK-2 = test system: LK-2
Summary of the method: as §1

LU99A = test system: LU99A
Summary of the method: as §1

NCI-H1650 = test system: NCI-H1650
Summary of the method: as §1

NCI-H1734 = test system: NCI-H1734
Summary of the method: as §1

NCI-H1755 = test system: NCI-H1755
Summary of the method: as §1

NCI-H1792 = test system: NCI-H1792
Summary of the method: as §1

NCI-H1993 = test system: NCI-H1993
Summary of the method: as §1

NCI-H2405 = test system: NCI-H2405
Summary of the method: as §1

NCI-H358 = test system: NCI-H358
Summary of the method: as §1

NCI-H460 = test system: NCI-H460
Summary of the method: as §1

NCI-H522 = test system: NCI-H522
Summary of the method: as §1

NCI-H596 = test system: NCI-H596
Summary of the method: as §1

NCI-H647 = test system: NCI-H647
Summary of the method: as §1

RERF-LC-KJ = test system: RERF-LC-KJ
Summary of the method: as §1

SW 900 = test system: SW 900
Summary of the method: as §1

SMILES: Cc1cn(-c2cc(NC(=O)c3ccc(C)c(Nc4nccc(-c5cccnc5)n4)c3)cc(C(F)(F)F)c2)cn1 [Nilotinib] + O=C(c1cc(Cc2n[nH]c(=O)c3ccccc23)ccc1F)N1CCN(C(=O)C2CC2)CC1 [Olaparib] (partner 8 µM)
- relative viability (A-427; first compound 0.001 µM): 0.76
- relative viability (A-427; first compound 0.003162 µM): 0.874
- relative viability (A-427; first compound 0.01 µM): 0.86
- relative viability (A-427; first compound 0.03162 µM): 0.804
- relative viability (A-427; first compound 0.1 µM): 0.936
- relative viability (COR-L 105; first compound 0.001 µM): 0.629
- relative viability (COR-L 105; first compound 0.003162 µM): 0.688
- relative viability (COR-L 105; first compound 0.01 µM): 0.645
- relative viability (COR-L 105; first compound 0.03162 µM): 0.636
- relative viability (COR-L 105; first compound 0.1 µM): 1.09
- relative viability (ChaGo-K-1; first compound 0.001 µM): 0.419
- relative viability (ChaGo-K-1; first compound 0.003162 µM): 0.476
- relative viability (ChaGo-K-1; first compound 0.01 µM): 0.478
- relative viability (ChaGo-K-1; first compound 0.03162 µM): 0.464
- relative viability (ChaGo-K-1; first compound 0.1 µM): 0.412
- relative viability (EKVX; first compound 0.001 µM): 0.735
- relative viability (EKVX; first compound 0.003162 µM): 1.08
- relative viability (EKVX; first compound 0.01 µM): 1.23
- relative viability (EKVX; first compound 0.03162 µM): 0.834
- relative viability (EKVX; first compound 0.1 µM): 1.07
- relative viability (EMC-BAC-2; first compound 0.001 µM): 0.43
- relative viability (EMC-BAC-2; first compound 0.003162 µM): 0.448
- relative viability (EMC-BAC-2; first compound 0.01 µM): 0.49
- relative viability (EMC-BAC-2; first compound 0.03162 µM): 0.497
- relative viability (EMC-BAC-2; first compound 0.1 µM): 0.521
- relative viability (EPLC-272H; first compound 0.001 µM): 0.605
- relative viability (EPLC-272H; first compound 0.003162 µM): 0.746
- relative viability (EPLC-272H; first compound 0.01 µM): 0.696
- relative viability (EPLC-272H; first compound 0.03162 µM): 0.448
- relative viability (EPLC-272H; first compound 0.1 µM): 0.513
- relative viability (HARA; first compound 0.001 µM): 0.639
- relative viability (HARA; first compound 0.003162 µM): 0.867
- relative viability (HARA; first compound 0.01 µM): 0.676
- relative viability (HARA; first compound 0.03162 µM): 0.535
- relative viability (HARA; first compound 0.1 µM): 0.747
- relative viability (HCC-44; first compound 0.001 µM): 0.895
- relative viability (HCC-44; first compound 0.003162 µM): 0.97
- relative viability (HCC-44; first compound 0.01 µM): 0.976
- relative viability (HCC-44; first compound 0.1 µM): 0.983
- relative viability (LK-2; first compound 0.001 µM): 0.673
- relative viability (LK-2; first compound 0.003162 µM): 0.947
- relative viability (LK-2; first compound 0.01 µM): 0.839
- relative viability (LK-2; first compound 0.03162 µM): 0.453
- relative viability (LK-2; first compound 0.1 µM): 0.681
- relative viability (LU99A; first compound 0.001 µM): 0.2
- relative viability (LU99A; first compound 0.003162 µM): 0.201
- relative viability (LU99A; first compound 0.03162 µM): 0.221
- relative viability (LU99A; first compound 0.1 µM): 0.164
- relative viability (NCI-H1650; first compound 0.001 µM): 0.776
- relative viability (NCI-H1650; first compound 0.003162 µM): 0.948
- relative viability (NCI-H1650; first compound 0.01 µM): 0.777
- relative viability (NCI-H1650; first compound 0.03162 µM): 0.756
- relative viability (NCI-H1650; first compound 0.1 µM): 1.08
- relative viability (NCI-H1734; first compound 0.001 µM): 0.576
- relative viability (NCI-H1734; first compound 0.003162 µM): 0.656
- relative viability (NCI-H1734; first compound 0.01 µM): 0.689
- relative viability (NCI-H1734; first compound 0.03162 µM): 0.543
- relative viability (NCI-H1734; first compound 0.1 µM): 0.497
- relative viability (NCI-H1755; first compound 0.001 µM): 0.839
- relative viability (NCI-H1755; first compound 0.003162 µM): 1.02
- relative viability (NCI-H1755; first compound 0.01 µM): 0.953
- relative viability (NCI-H1755; first compound 0.03162 µM): 0.901
- relative viability (NCI-H1755; first compound 0.1 µM): 0.784
- relative viability (NCI-H1792; first compound 0.001 µM): 0.312
- relative viability (NCI-H1792; first compound 0.003162 µM): 0.535
- relative viability (NCI-H1792; first compound 0.01 µM): 0.456
- relative viability (NCI-H1792; first compound 0.03162 µM): 0.258
- relative viability (NCI-H1792; first compound 0.1 µM): 0.319
- relative viability (NCI-H1993; first compound 0.001 µM): 0.957
- relative viability (NCI-H1993; first compound 0.003162 µM): 1.1
- relative viability (NCI-H1993; first compound 0.01 µM): 1.75
- relative viability (NCI-H1993; first compound 0.03162 µM): 1.01
- relative viability (NCI-H1993; first compound 0.1 µM): 1.23
- relative viability (NCI-H2405; first compound 0.001 µM): 0.837
- relative viability (NCI-H2405; first compound 0.003162 µM): 0.878
- relative viability (NCI-H2405; first compound 0.01 µM): 0.858
- relative viability (NCI-H2405; first compound 0.03162 µM): 0.728
- relative viability (NCI-H2405; first compound 0.1 µM): 0.629
- relative viability (NCI-H358; first compound 0.001 µM): 0.546
- relative viability (NCI-H358; first compound 0.003162 µM): 0.721
- relative viability (NCI-H358; first compound 0.01 µM): 0.813
- relative viability (NCI-H358; first compound 0.03162 µM): 0.52
- relative viability (NCI-H358; first compound 0.1 µM): 0.539
- relative viability (NCI-H460; first compound 0.001 µM): 0.318
- relative viability (NCI-H460; first compound 0.003162 µM): 0.295
- relative viability (NCI-H460; first compound 0.01 µM): 0.496
- relative viability (NCI-H460; first compound 0.03162 µM): 0.27
- relative viability (NCI-H460; first compound 0.1 µM): 0.34
- relative viability (NCI-H522; first compound 0.01 µM): 0.66
- relative viability (NCI-H522; first compound 0.03162 µM): 0.625
- relative viability (NCI-H522; first compound 0.1 µM): 0.565
- relative viability (NCI-H596; first compound 0.001 µM): 0.651
- relative viability (NCI-H596; first compound 0.003162 µM): 0.702
- relative viability (NCI-H596; first compound 0.01 µM): 0.711
- relative viability (NCI-H596; first compound 0.03162 µM): 0.646
- relative viability (NCI-H596; first compound 0.1 µM): 0.671
- relative viability (NCI-H647; first compound 0.001 µM): 0.527
- relative viability (NCI-H647; first compound 0.003162 µM): 0.735
- relative viability (NCI-H647; first compound 0.01 µM): 0.649
- relative viability (NCI-H647; first compound 0.03162 µM): 0.482
- relative viability (NCI-H647; first compound 0.1 µM): 0.544
- relative viability (RERF-LC-KJ; first compound 0.001 µM): 0.816
- relative viability (RERF-LC-KJ; first compound 0.003162 µM): 1.03
- relative viability (RERF-LC-KJ; first compound 0.01 µM): 0.976
- relative viability (RERF-LC-KJ; first compound 0.03162 µM): 0.826
- relative viability (RERF-LC-KJ; first compound 0.1 µM): 0.892
- relative viability (SW 900; first compound 0.003162 µM): 0.916
- relative viability (SW 900; first compound 0.01 µM): 0.965
- relative viability (SW 900; first compound 0.03162 µM): 0.77
- relative viability (SW 900; first compound 0.1 µM): 0.776
